Measured values reported in patent publication US12331040B2 (Karyopharm Therapeutics Inc., priority 2013, dated 2025).
Where two headings read alike, the source gives them in different places.

How the values were obtained:
Test in all cases: MTT cell proliferation assay
Assay type in all cases: cell-based
3T3 cells = settings: Mus musculus, NIH3T3, approximately 64-72 hours incubation
Method in brief: (§1)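 Cytotoxicity was measured by MTT: OD490 of the solubilized formazan after roughly 4 h with MTT reagent, reported as mean percent inhibition relative to the negative control. Test compounds covered eight concentrations between 1 nM and 30 μM, added to 5,000–10,000 cells per well that had attached overnight.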

Z138 cells = settings: Homo sapiens, Z-138, Z138 cells, approximately 64-72 hours incubation
Method in brief: as §1

MS751 cells = settings: Homo sapiens, MS751, MS751 cells, approximately 64-72 hours incubation
Method in brief: as §1

[1] = read-out: MTT Assay IC50, Z-138
[2] = read-out: MTT Assay IC50, MS-751
[3] = read-out: MTT Assay IC50 MS-751

Row | SMILES | IC50 (3T3 cells; read-out: MTT Assay IC50, 3T3) [µM] | IC50 (Z138 cells; [1]) [µM] | IC50 (MS751 cells; [2]) [µM] | IC50 (3T3 cells; read-out: MTT Assay IC50 3T3) [µM] | IC50 (Z138 cells; read-out: MTT Assay IC50 Z-138) [µM] | IC50 (MS751 cells; [3]) [µM]
1 | Nc1ccc(/C=C/C(=O)NCc2cc3cc(-c4ccc(C(=O)N5CCC(F)(F)CC5)s4)cc(C(F)(F)F)c3o2)cn1 [Compound 685, (E)-3-(6-aminopyridin-3-yl)-N-((5-(5-(4,4-difluoropiperidine-1-carbonyl)thiophen-2-yl)-7-(trifluoromethyl)benzofuran-2-yl)methyl)acrylamide] | > 10 | 0.1 to 5 | 0.1 to 5 | – | – | –
2 | Nc1ccc(/C=C/C(=O)NCc2cc3cc(-c4ccc(C(=O)N5CCNCC5)cc4)cc(Cl)c3o2)cn1 [Compound 601] | – | – | – | > 10 | 0.1 to 5 | 0.1 to 5
3 | O=C(/C=C/c1cccnc1)NCc1cc2cc(-c3ccc(C(=O)N4CCC(F)(F)CC4)cc3)cc(-c3ccc(F)cc3)c2o1 [Compound 729] | < 0.1 | < 0.1 | < 0.1 | – | – | –
4 | COc1cc(-c2ccc(C(=O)N3CCNCC3)cc2)cc2cc(CNC(=O)/C=C/c3ccc(N)nc3)oc12 [Compound 637, (E)-3-(6-aminopyridin-3-yl)-N-((7-methoxy-5-(4-(piperazine-1-carbonyl)phenyl)benzofuran-2-yl)methyl)acrylamide] | – | – | – | > 10 | 0.1 to 5 | 0.1 to 5
5 | Nc1ccc(/C=C/C(=O)NCc2cc3cccc(-c4ccc(C(=O)N5CCOCC5)cc4)c3o2)cn1 [Compound 559, (E)-3-(6-aminopyridin-3-yl)-N-((7-(4-(morpholine-4-carbonyl)phenyl)benzofuran-2-yl)methyl)acrylamide] | – | – | – | 0.1 to 5 | < 0.1 | < 0.1
6 | Nc1ccc(/C=C/C(=O)NCc2cc3cc(-c4ccc(OC5CCC(F)(F)CC5)cc4)cc(-c4ccc(F)cc4)c3o2)cn1 [Compound 763, (E)-3-(6-aminopyridin-3-yl)-N-((5-(4-((4,4-difluorocyclohexyl)oxy)phenyl)-7-(4-fluorophenyl)benzofuran-2-yl)methyl)acrylamide] | > 10 | 0.1 to 5 | 0.1 to 5 | – | – | –
7 | Cc1c(CNC(=O)/C=C/c2ccc(N)nc2)oc2c(C(F)(F)F)cc(-c3ccc(C(=O)N4CCC(F)(F)CC4)cn3)cc12 [Compound 677, (E)-3-(6-aminopyridin-3-yl)-N-((5-(5-(4,4-difluoropiperidine-1-carbonyl)pyridin-2-yl)-3-methyl-7-(trifluoromethyl)benzofuran-2-yl)methyl)acrylamide] | > 10 | > 10 | > 10 | – | – | –
8 | CN1CCN(C(=O)c2cnc(-c3cc(Cl)c4oc(CNC(=O)/C=C/c5ccc(N)nc5)cc4c3)nc2)CC1 [Compound 586] | – | – | – | > 10 | 0.1 to 5 | 0.1 to 5
9 | Nc1ccc(/C=C/C(=O)NCc2cc3cc(C4CC4C(=O)N4CCC(F)(F)CC4)cc(C(F)(F)F)c3o2)cn1 (stereo not drawn) [Compound 695, (E)-3-(6-aminopyridin-3-yl)-N-((5-(2-(4,4-difluoropiperidine-1-carbonyl)cyclopropyl)-7-(trifluoromethyl)benzofuran-2-yl)methyl)acrylamide] | > 10 | 0.1 to 5 | 0.1 to 5 | – | – | –
10 | O=C(/C=C/c1ccccn1)NCc1cc2cc(-c3ccc(C(=O)N4CCOCC4)cc3)cc(Cl)c2o1 [Compound 539, (E)-N-((7-chloro-5-(4-(morpholine-4-carbonyl)phenyl)benzofuran-2-yl)methyl)-3-(pyridin-2-yl)acrylamide] | – | – | – | > 10 | 0.1 to 5 | 0.1 to 5
11 | Nc1ccc(/C=C/C(=O)NCc2cc3cc(-c4ccc(OC(=O)N5CCOCC5)cc4)cc(Cl)c3o2)cn1 [Compound 556, (E)-4-(2-((3-(6-aminopyridin-3-yl)acrylamido)methyl)-7-chlorobenzofuran-5-yl)phenyl morpholine-4-carboxylate] | – | – | – | > 10 | 0.1 to 5 | 0.1 to 5
12 | C[C@H]1COCCN1C(=O)c1ccc(-c2cc(Cl)c3oc(CNC(=O)/C=C/c4ccc(N)nc4)cc3c2)cc1 [Compound 515, (S,E)-3-(6-aminopyridin-3-yl)-N-((7-chloro-5-(4-(3-methylmorpholine-4-carbonyl)phenyl)benzofuran-2-yl)methyl)acrylamide] | – | – | – | > 10 | 0.1 to 5 | 0.1 to 5
13 | Nc1ccc(/C=C/C(=O)NCc2cc3cc(-c4ccc(C(=O)N5CCC(F)(F)CC5)cc4F)cc(-c4ccc(F)cc4)c3o2)cn1 [Compound 751, (E)-3-(6-aminopyridin-3-yl)-N-((5-(4-(4,4-difluoropiperidine-1-carbonyl)-2-fluorophenyl)-7-(4-fluorophenyl)benzofuran-2-yl)methyl)acrylamide] | 0.1 to 5 | < 0.1 | < 0.1 | – | – | –
14 | Nc1ccc(/C=C/C(=O)NCc2cc3cc(-c4ccc(C(=O)N5CCCOCC5)cc4)cc(C(F)(F)F)c3o2)cn1 [Compound 574, (E)-N-((5-(4-(1,4-oxazepane-4-carbonyl)phenyl)-7-(trifluoromethyl)benzofuran-2-yl)methyl)-3-(6-aminopyridin-3-yl)acrylamide] | – | – | – | > 10 | 0.1 to 5 | 0.1 to 5
15 | Nc1ccc(/C=C/C(=O)NCc2cc3cc(-c4ccc(C(=O)N5CCC(F)(F)CC5)cc4)cc(-c4ccncc4)c3o2)cn1 [Compound 722, (E)-3-(6-aminopyridin-3-yl)-N-((5-(4-(4,4-difluoropiperidine-1-carbonyl)phenyl)-7-(pyridin-4-yl)benzofuran-2-yl)methyl)acrylamide] | 0.1 to 5 | < 0.1 | < 0.1 | – | – | –
16 | Nc1ccc(/C=C/C(=O)NCc2cc3cc(-c4ccc(C(=O)N5CC[C@H](Cl)C5)cc4)cc(C(F)(F)F)c3o2)cn1 [Compound 610, (S,E)-3-(6-aminopyridin-3-yl)-N-((5-(4-(3-chloropyrrolidine-1-carbonyl)phenyl)-7-(trifluoromethyl)benzofuran-2-yl)methyl)acrylamide] | – | – | – | > 10 | 0.1 to 5 | 0.1 to 5
17 | O=C(/C=C/c1cccnc1)NCc1cc2cc(-c3ccc(C(=O)N4CCC(F)(F)CC4)cn3)cc(-c3cccc(F)c3)c2o1 [Compound 720, (E)-N-((5-(5-(4,4-difluoropiperidine-1-carbonyl)pyridin-2-yl)-7-(3-fluorophenyl)benzofuran-2-yl)methyl)-3-(pyridin-3-yl)acrylamide] | < 0.1 | < 0.1 | < 0.1 | – | – | –
18 | CC1(F)CCN(C(=O)c2ccc(-c3cc(C(F)(F)F)c4oc(CNC(=O)/C=C/c5ccc(N)nc5)cc4c3)cc2)C1 (stereo not drawn) [Compound 608, (E)-3-(6-aminopyridin-3-yl)-N-((5-(4-(3-fluoro-3-methylpyrrolidine-1-carbonyl)phenyl)-7-(trifluoromethyl)benzofuran-2-yl)methyl)acrylamide] | – | – | – | > 10 | 0.1 to 5 | 0.1 to 5
19 | Nc1ccc(/C=C/C(=O)NCc2cc3cc(-c4ccc(C(=O)N5CCC(C(F)(F)F)CC5)cn4)cc(C(F)(F)F)c3o2)cn1 [Compound 615, (E)-3-(6-aminopyridin-3-yl)-N-((7-(trifluoromethyl)-5-(5-(4-(trifluoromethyl)piperidine-1-carbonyl)pyridin-2-yl)benzofuran-2-yl)methyl)acrylamide] | – | – | – | > 10 | 0.1 to 5 | 0.1 to 5
20 | CC1(C)CN(S(=O)(=O)c2ccc(-c3cc(Cl)c4oc(CNC(=O)/C=C/c5ccc(N)nc5)cc4c3)cc2)C1 [Compound 555, (E)-3-(6-aminopyridin-3-yl)-N-((7-chloro-5-(4-(3,3-dimethylazetidin-1-ylsulfonyl)phenyl)benzofuran-2-yl)methyl)acrylamide] | – | – | – | > 10 | 0.1 to 5 | 0.1 to 5
21 | CC(C)(O)c1ccc(-c2cc(Cl)c3oc(CNC(=O)/C=C/c4ccc(N)nc4)cc3c2)s1 [Compound 650, (E)-3-(6-aminopyridin-3-yl)-N-((7-chloro-5-(5-(2-hydroxypropan-2-yl)thiophen-2-yl)benzofuran-2-yl)methyl)acrylamide] | – | – | – | > 10 | 0.1 to 5 | 0.1 to 5
22 | Cc1noc(C)c1/C=C/C(=O)NCc1cc2cc(-c3ccc(C(=O)N4CCOCC4)cc3)cc(Cl)c2o1 [Compound 541, (E)-N-((7-Chloro-5-(4-(morpholine-4-carbonyl)phenyl)benzofuran-2-yl)methyl)-3-(3,5-dimethylisoxazol-4-yl)acrylamide] | – | – | – | > 10 | 0.1 to 5 | 0.1 to 5
23 | Nc1ccc(/C=C/C(=O)NCc2cc3cc(-c4ncc(C(=O)N5CCOCC5)cn4)cc(Cl)c3o2)cn1 [Compound 583, (E)-3-(6-aminopyridin-3-yl)-N-((7-chloro-5-(5-(morpholine-4-carbonyl)pyrimidin-2-yl)benzofuran-2-yl)methyl)acrylamide] | – | – | – | > 10 | 0.1 to 5 | 0.1 to 5
24 | Nc1ccc(/C=C/C(=O)NCCc2cc3cc(-c4ccc(C(=O)N5CCC(F)(F)CC5)cn4)cc(C(F)(F)F)c3o2)cn1 [Compound 690, (E)-3-(6-aminopyridin-3-yl)-N-(2-(5-(5-(4,4-difluoropiperidine-1-carbonyl)pyridin-2-yl)-7-(trifluoromethyl)benzofuran-2-yl)ethyl)acrylamide] | 0.1 to 5 | < 0.1 | < 0.1 | – | – | –
25 | Nc1ccc(/C=C/C(=O)NCc2cc3cc(-c4ccc(C(=O)N5CCC(F)(F)CC5)cn4)cc(OC(F)(F)F)c3o2)cn1 [Compound 663, (E)-3-(6-aminopyridin-3-yl)-N-((5-(5-(4,4-difluoropiperidine-1-carbonyl)pyridin-2-yl)-7-(trifluoromethoxy)benzofuran-2-yl)methyl)acrylamide] | 0.1 to 5 | < 0.1 | < 0.1 | – | – | –
